Legend:
[1] = molecular target: T1, Soluble epoxide hydrolase (gene EPXH2) (Homo sapiens, UniProt P34913); conditions: read-out: Ki (nM) for Known Target; cited from earlier work
T1 sequence (P34913 1-555): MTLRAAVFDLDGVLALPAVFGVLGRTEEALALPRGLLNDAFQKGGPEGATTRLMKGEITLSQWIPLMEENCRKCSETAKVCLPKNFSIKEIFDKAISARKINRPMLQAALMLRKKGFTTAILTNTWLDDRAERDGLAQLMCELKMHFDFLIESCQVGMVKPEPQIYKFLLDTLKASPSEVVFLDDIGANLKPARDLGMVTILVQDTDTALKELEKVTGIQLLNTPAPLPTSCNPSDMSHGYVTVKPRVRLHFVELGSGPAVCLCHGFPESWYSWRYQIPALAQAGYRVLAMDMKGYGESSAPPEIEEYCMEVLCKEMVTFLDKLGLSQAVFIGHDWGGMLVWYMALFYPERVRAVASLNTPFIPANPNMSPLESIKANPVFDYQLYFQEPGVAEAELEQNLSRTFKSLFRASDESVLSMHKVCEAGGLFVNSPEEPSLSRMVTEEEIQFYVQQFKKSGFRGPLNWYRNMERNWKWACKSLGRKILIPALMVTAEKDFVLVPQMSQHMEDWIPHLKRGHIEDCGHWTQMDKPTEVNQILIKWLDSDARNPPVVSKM

[2] = molecular target: T2, GST-MSUT2 (Homo sapiens, UniProt Q6PJT7); experiment: Alpha Screen assay of biotinylated poly(A) RNA:GST-MSUT2 binding; conditions: by Alpha assay
T2 construct: Targeted construct consisted of the c-terminal end (dark blue and amino acids 601-736) of MSUT2; made in house; host or cells: E. coli BL21 (DE3)
T2 sequence (Q6PJT7 601-736): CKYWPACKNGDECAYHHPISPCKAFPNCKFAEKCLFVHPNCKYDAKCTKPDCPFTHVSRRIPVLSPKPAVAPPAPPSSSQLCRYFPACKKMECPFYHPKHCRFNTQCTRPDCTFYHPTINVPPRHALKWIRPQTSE
Description: Alpha Screen Assay. Samples were set up in 384 well Perkin Elmer white opaque-bottom plates (PE06). A total reaction volume of […] was plated in 384 format using a CyBio Well Vario (6 μL of donor beads (10 μg/mL), 3 μL biotinylated RNA (250 nM), 3 μL GST-MSUT2 protein (250 nM) per well). 50 nL of compounds were transferred to wells via CyBio Vario equipped with Pin Tool. This mixture was incubated at room temperature for 30 minutes away from light. Next 3 μL of acceptor beads (1.25 μg/mL) was added. Plates were incubated at room temperature away from light for 60 minutes and subsequently read on a Perkin Elmer EnVision multimode microplate reader equipped with stackers using a standard 384-well Alpha Assay software protocol.
Results. Alpha Screen design and underlying principle. Alpha Screen technology relies on donor beads, coated with a hydrogel excitable by 680 nm, brought within close proximity to an acceptor bead leading to light emission and detection. In this assay, streptavidin coated donor beads tightly bind to biotinylated-poly(A) RNA while the glutathione-coated acceptor bead binds to GST-tagged MSUT2 protein. […] When this interaction is blocked by an inhibitor, the proximity threshold for donor and acceptor beads is not met, singlet oxygen transference cannot occur, and light is not emitted by the acceptor bead (FIG. 1a).
Identification and validation of MSUT2 inhibitory compounds from NIHCC library. The single-point primary screen was conducted in duplicate and utilized the FP assay conditions determined herein (e.g., 125 nM MSUT2 RNABP and 10 nM FAM-RNA probe) with 10 μM library compounds added in a 96-well format. […] Compound specificity was empirically tested by counter screening against PABPN1, a regulator of the length of mRNA poly(A) tails (Apponi, L. H. et al. Hum Mol Genet 19, 1058-1065, (2010); and Benoit, B. et al. Dev Cell 9, 511-522, (2005)). IC50 of each of the previous 8 compounds was determined for PABPN1 using fluorescence polarization (FIG. 11), and a specificity ratio determined (Table 3). An Alpha Screen (AS) assay was developed as an orthogonal screen. Briefly, in this screen, biotinylated RNA binds streptavidin-coated donor beads, while GST-MSUT2 ZF binds glutathione-coated acceptor beads. […] Toxicity of these compounds in a HEK cell model was determined using a standard Promega Cell Titer Glo assay.
Alpha Screen Assay. […] The plate was then incubated again at room temperature away from light for 60 minutes and subsequently read on a Perkin Elmer EnSight multimode microplate reader using a standard 96-well Alpha Assay protocol.

Ki [2]: 1.58 µM
Structure (SMILES): O=c1c2ccccc2[se]n1-c1ccccc1 [Ebselen]
Ki [1]: 0.55 nM
